Results on 22 compounds are retold here after PubChem BioAssay (NCI).

Several values for one entry are separate records, joined by “and”; a condition that tells them apart may be missing. Equal values may be shown once.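 In this assay, cells in 96-well plates receive the compound at five concentrations for 48 hours. Endpoints are linearly interpolated between the surrounding concentrations. GI50 = concentration required for 50% inhibition of growth. TGI: total growth inhibition.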

Common to all, as to assay: inhibition of tumour cell growth, NCI panel, 48 h
Assay [1] deals with CCRF-CEM leukemia.
Assay [2] concerns CAKI-1 renal.
The subject of assay [3] is NCI-H23 lung.
The test system of assay [4] is SN12C renal.
Assay [5] relates to OVCAR-3 ovarian.
For assay [6], the system named is RXF 393 renal.
In assay [7] the test system is HCC-2998 colon.
Assay [8] deals with KM12 colon.
Assay [9] deals with SF-295 CNS.
Assay [10] relates to UACC-62 melanoma.

Consider `O=C(CO[N+](=O)[O-])OCC(=O)c1ccccc1`, for which the TGI in assay [1], in assay [2], in assay [3], in assay [4], in [5] and in assay [6] was above 100 µM each time. Moreover, the TGI in assay [7], in assay [8] and in assay [9] was above 100 µM each time.

For `CN1C/C(=C\c2ccco2)c2nc(N)nc(-c3ccco3)c2C1`, the TGI in assay [1], in [2], in [3], in [4], in assay [5] and in [6] was above 100 µM each time. Moreover, the TGI in assay [10], in [7], in [8] and in assay [9] was above 100 µM throughout.

`Cc1cc2c(SCc3ccccc3Cl)nc(N)nc2nc1C`: the TGI in assay [1], in [2], in assay [3], in [4], in assay [5] and in assay [6] was above 100 µM in each case. The TGI in [10], in assay [7], in assay [8] and in assay [9] was above 100 µM each time.

`O=C(NCc1cccnc1)c1ccc([N+](=O)[O-])o1`: the GI50 in [1] was 14.5 µM; in assay [2], 2.39 µM; in assay [3] it was 2.26 µM; in assay [4], 1.19 µM; in [5], 1.61 µM; in assay [6] it was 1.15 µM. For the same compound, the GI50 in [10] was 1.06 µM; in [7] it was 1.83 µM; in assay [8] it was 1.32 µM; in assay [9], 2.48 µM. Further, the TGI was above 32.5 µM in [1]; 13.3 µM in assay [2]; 6.85 µM in [3]; 4.49 µM in assay [4]; 6.89 µM in assay [5]; 5.12 µM in assay [6]. Besides, the TGI in [10] came to 4.42 µM; in [7], 6.05 µM; in assay [8], 5.32 µM; in [9], 7.14 µM.

`CC1=C2[C@@H](c3ccccc3)C3C=CC2(C=C3C(F)(F)F)N(C(=O)NC2CCCCC2)C1=O` (stereo partly drawn): the TGI in assay [1], in assay [2], in [3], in assay [4], in assay [5] and in assay [6] was above 100 µM in each case. Besides, the TGI in assay [10], in [7], in [8] and in [9] was above 100 µM in each case.

Regarding `NC(=O)NC(=O)C1CCC(=O)N1S(=O)(=O)c1ccc(Cl)cc1` (stereo not drawn), the TGI in [1], in [2], in [3], in assay [4], in assay [5] and in assay [6] was above 100 µM throughout. The TGI in assay [10], in assay [8] and in assay [9] was above 100 µM each time.

`O=c1cccccc1[O-].O=c1cccccc1[O-].O=c1cccccc1[O-].[Dy+3]`: the TGI in assay [1] is 55.2 µM; in assay [2] it was above 100 µM; in assay [3] it was 66.4 µM; in [4], above 100 µM; in [5], 41.1 µM; in assay [6] it was 79 µM. The TGI in assay [10], in assay [7], in assay [8] and in assay [9] was above 100 µM throughout. Further, in [4], the GI50 is 17.7 µM.

Turning to `COC(=O)C(NC(=O)c1ccccc1)c1ccc(OC)c(I)c1` (stereo not drawn), the GI50 in assay [1] is 53.8 µM; in [2], 77.6 µM; in assay [4], above 100 µM; in [5] it was 37.4 µM; in assay [6], above 100 µM; in [10], 52.9 µM. The GI50 is 54.5 µM in assay [7], above 100 µM in assay [8] and 66.4 µM in [9]. Also, the TGI in assay [1] is above 100 µM; in [2], above 100 µM; in assay [4], above 100 µM; in [5] it was 88.2 µM; in [6], above 100 µM; in [10], above 100 µM. For the same compound, the TGI in assay [7], in [8] and in assay [9] was above 100 µM each time.

For `CCc1c[nH]c2ncnc(N3CC[C@](N)(CNC(=O)c4ccc(F)cc4F)C3)c12`, the GI50 in assay [1] was 2.72 µM; in assay [2], 8.62 µM; in [3] it was 18.6 µM; in [4] it was 24.2 µM; in assay [5], 11.4 µM; in [6], 0.244 µM. For the same compound, the GI50 is 3.33 µM in [10], 11.5 µM in assay [7], 1.25 µM in [8] and 1 µM in [9]. The TGI is above 91.2 µM in assay [1]; above 63.6 µM in [2]; above 100 µM in assay [3]; above 100 µM in assay [4]; above 100 µM in [5]; 8.02 µM in assay [6]. The TGI is 45.1 µM in [10], above 100 µM in [7], above 100 µM in [8] and above 100 µM in [9].

For `CN1CCN(Cc2ccc(NC(=O)c3cncc(C#Cc4cnc5cccnn45)c3)cc2C(F)(F)F)CC1`, the GI50 was 1.52 µM in assay [1]; 1.44 µM in assay [2]; 0.892 µM in assay [3]; 1.26 µM in assay [4]; 1.76 µM in assay [5]; 0.783 µM in assay [6]. In addition, the GI50 in [10] was 1.33 µM; in assay [7], 1.31 µM; in assay [8] it was 0.00863 µM; in assay [9], 1.49 µM. The TGI in assay [1] amounted to 15.2 µM; in [2], 5.22 µM; in assay [3] it was 2.32 µM; in assay [4], 5.2 µM; in assay [5], 5.5 µM; in [6], 1.71 µM. Further, the TGI in assay [10] was 4.46 µM; in assay [7], 4.24 µM; in assay [8], 2.41 µM; in [9] it was 5.42 µM.

As for `Cc1c2cc[n+](C)cc2c(C)c2c1[nH]c1ccc(Oc3ccccc3)cc12`, the TGI was 18.6 µM and 22.9 µM in assay [1]; above 100 µM in [2]; above 100 µM in assay [4]; > 37.6 µM and 31.7 µM in [5]; > 100 µM and 59.4 µM in assay [6]; 7.5 µM and 7.54 µM in assay [10]. The TGI is > 47.9 µM and 39.6 µM in [7]; 18.8 µM and > 100 µM in assay [8]. Also, the GI50 was 1.73 µM in assay [3]; > 100 µM and 11 µM in assay [6].

With `O=C(COC(=O)[C@H](C[Se][Se]C[C@H](NC(=O)c1ccc(Br)cc1F)C(=O)OCC(=O)c1ccc(F)cc1)NC(=O)c1ccc(Br)cc1F)c1ccc(F)cc1`, the GI50 in [2] is 0.716 µM; in assay [3], 0.692 µM; in assay [4] it was 1.27 µM; in assay [5], 0.479 µM; in assay [6], 0.422 µM; in assay [10] it was 1.69 µM. Further, the GI50 in assay [7] was 1.39 µM; in assay [8] it was 0.301 µM; in [9], 0.0511 µM. Besides, the TGI in assay [2] came to 2.66 µM; in [3], 2.7 µM; in [4], 2.98 µM; in [5], 1.27 µM; in [6] it was 1.5 µM; in assay [10] it was 4.83 µM. The figures for the TGI in assay [7], in assay [8] and in [9] were 3.56 µM, 0.793 µM and 0.18 µM, respectively.

For `CC1=CC(=O)N2[C@H](OC[C@@H]2C(C)C)O1`, the TGI in [1], in assay [2], in [3], in assay [4], in assay [5] and in assay [6] was above 100 µM each time. Besides, the TGI in [10], in [8] and in assay [9] was above 100 µM each time.

As for `CCNC(=O)O/N=C1/C=C2CC[C@@H]3C(CC[C@@]4(C)C3CC[C@@H]4OC(=O)NCC)[C@@]2(C)CC1` (stereo partly drawn), the TGI in [2] was determined as 16.9 µM; in assay [3], 10.8 µM; in assay [4], 14.6 µM; in assay [6] it was 5.3 µM; in assay [10], 7.92 µM; in assay [7] it was 15.2 µM. The figures for the TGI in assay [8] and in assay [9] were 9.58 µM and 7.03 µM, respectively.

As to `CCCCc1c2c(nc3c1CC/C(=C\c1ccccc1)C3=O)CCCC2`, the TGI in assay [1] was found to be 29.4 µM; in assay [3], 17.7 µM; in assay [4] it was 10.9 µM; in assay [5], 10.4 µM; in assay [6], 6.35 µM; in assay [10], 7.04 µM. Besides, the TGI in assay [7] came out at 8.34 µM; in assay [8], 13.5 µM; in [9], 16 µM.

On to `COc1ccc(S(=O)(=O)NCCCNc2nccc(-c3c(-c4ccc(F)cc4)nc4sccn34)n2)cc1`, for which the GI50 in [1] was 4.42 µM; in [2], 6.72 µM; in [3], 15.3 µM; in [4], 7.55 µM; in assay [6], 3.36 µM; in assay [10] it was 3.38 µM. Besides, the GI50 in assay [7] is 11.8 µM; in [8], 5.07 µM; in [9], 11.2 µM. Besides, the TGI is above 100 µM in assay [1]; above 100 µM in assay [2]; above 100 µM in [3]; above 100 µM in [4]; 76.7 µM in assay [6]; 74.8 µM in assay [10]. Also, the TGI in [7] is 56.7 µM; in [8], above 100 µM; in assay [9], 72.3 µM.

In the case of `NC1CC(n2ccc(=O)[nH]c2=O)OC1C(O)CO` (stereo not drawn), the TGI in assay [1], in [3], in [4], in [5], in assay [6] and in [10] was above 100 µM each time. The TGI in assay [7], in assay [8] and in [9] was above 100 µM throughout.

With `Cc1cc(C2(c3cc(C)c(O)c4ncccc34)OC(=O)c3ccccc32)c2cccnc2c1O`, the TGI in [1] is above 100 µM; in [2] it was 1.07 µM; in assay [4] it was 12.1 µM; in assay [6] it was above 100 µM; in [10], 14.6 µM; in assay [7], above 100 µM. The TGI was above 100 µM in assay [8] and 21.3 µM in assay [9]. Besides, the GI50 was 0.0145 µM in assay [3], 0.0209 µM in [10] and 0.012 µM in assay [9].

With `CC(C)=NO.CC(C)=NO.CC(C)=NO.CC(C)=NO.[Ti]`, the GI50 in assay [1], in assay [2], in assay [4], in assay [5], in [6] and in [10] was above 100 µM each time. For the same compound, the GI50 in assay [7], in [8] and in assay [9] was above 100 µM throughout. Besides, the TGI in assay [1], in assay [2], in assay [4], in assay [5], in assay [6] and in [10] was above 100 µM throughout. In addition, the TGI in assay [7], in assay [8] and in [9] was above 100 µM throughout.

For the compound `O=C1NC2(CCCCC2)C2=C1CCCCC2`, the TGI in assay [1], in assay [2], in assay [3], in assay [4], in assay [5] and in [6] was above 100 µM in each case. Moreover, the TGI in assay [10], in assay [8] and in assay [9] was above 100 µM in each case.

Consider `Clc1ccc(N=CNc2ccc(-c3nc4ccccc4[nH]3)cc2)cc1`, for which the GI50 in assay [2] is 0.827 µM; in [4], above 100 µM; in assay [5], 5.35 µM; in assay [6], above 100 µM; in assay [10] it was 0.386 µM; in assay [8] it was 0.691 µM. In addition, the GI50 in [9] was 6.18 µM. Moreover, the TGI was 42.5 µM in assay [2]; above 100 µM in assay [4]; above 100 µM in [5]; above 100 µM in [6]; above 100 µM in assay [10]; 18.5 µM in [8]. The TGI in [9] was above 100 µM.

Take `COC(=O)C1=C(C)N(NC(=O)Nc2ccccc2)C2(N)N(NC(=O)Nc3ccccc3)C(C)=C(C(=O)OC)C12C(=O)OC` (stereo not drawn): the TGI in assay [1] was above 100 µM; in assay [2], 82.9 µM; in assay [3], above 100 µM; in [4] it was above 100 µM; in assay [5], above 100 µM; in assay [6], above 100 µM. Besides, the TGI in [10] and in assay [7] was above 100 µM each time.
